Measurements as given in the SangsterLogP compilation.

Row | logP | SMILES
1 | 1.63 | c1ccc2c(c1)COC2
2 | 4.47 | c1ccc2c(c1)Sc1ccccc1S2
3 | 4.23 | c1ccc2c(c1)Cc1ccccc1O2
4 | 1.67 | c1ccc(-c2ccccn2)nc1

The next lines start with the compound.

Row | SMILES | logP
5 | c1ccc2c(c1)Oc1ccccc1O2 | 4.19
6 | c1ccc2cc3c(cc2c1)sc1ccccc13 | 5.07
7 | c1ccc2sccc2c1 | 3.26
8 | c1csc(-c2cccs2)c1 | 3.75

remark: another data set of the same source

Row | logP | SMILES
9 | 2.26 | c1ccc2c(c1)CCO2
10 | 5.84 | c1ccc2c(c1)c1ccccc1c1ccccc21
11 | 2.53 | c1ccc2occc2c1
12 | 7.71 | c1ccc2c(c1)cc1ccc3cccc4c5ccccc5c2c1c34
13 | 7.11 | c1ccc2cc3c(ccc4c5ccccc5ccc34)cc2c1
14 | 5.08 | c1ccc2cc3c(cc2c1)oc1ccccc13
15 | 7.11 | c1ccc2cc3c4ccccc4c4ccccc4c3cc2c1
16 | 8.39 | c1ccc2c(c1)c1ccccc1c1c3ccccc3c3ccccc3c21
17 | 4.6 | c1ccc(-c2cccc(-c3ccccc3)n2)cc1
18 | 7.11 | c1ccc2c(c1)ccc1c2ccc2ccc3ccccc3c21
19 | 1.96 | c1ccc(-c2cccc(-c3ccccn3)n2)nc1
20 | 7.11 | c1ccc2c(c1)ccc1c2ccc2c3ccccc3ccc21
21 | 1.33 | c1cc(-c2ccncc2)ccn1
22 | 1.93 | c1cnc2c(c1)ccc1cccnc12
23 | 3 | c1ccc(-c2cc3cccnc3c3ncccc23)cc1
24 | 6.44 | c1ccc2c(c1)c1cccc3ccc4cccc2c4c31
25 | 8.46 | c1ccc(-c2c3ccccc3c(-c3ccccc3)c3ccccc23)cc1

More lines, now with the values behind:

Row | SMILES | logP
26 | c1cc2c3c(c1)ccc1ccc4cccc-2c4c13 | 6.63
27 | c1cc2ccc3ccc4ccc5cccc6c(c1)c2c3c4c56 | 7.04
28 | c1cnc2c(c1)ccc1ncccc12 | 1.93
29 | c1ccc2c(c1)ccc1ncccc12 | 3.25
30 | c1ccc2cc3cc4cc5ccccc5cc4cc3cc2c1 | 7.11
31 | C1=Cc2ccc3c4c(ccc1c24)C=C3 | 5.07
32 | c1ccc2c(c1)ccc1c3ccc4ccccc4c3[nH]c21 | 5.89
33 | c1ccc2c(c1)ccc1cccnc12 | 3.25
34 | c1cc2ccc3cc4cccc5ccc6cc(c1)c2c3c6c54 | 7.04
35 | c1cnccn1 | -0.05
